# Patent publication US8791123B2, “Substituted pyrazolo[1,5-a]pyrimidine compounds as Trk kinase inhibitors” (Array Biopharma, Inc., priority 2009, dated 2014)
# Where two headings read alike, the source gives them in different places.
# How the values were obtained:
# [1] = biological target: TrkA (histidine-tagged recombinant human TrkA, cytoplasmic domain) (Homo sapiens (Human), UniProt P04629); assay: TrkA ELISA Assay; format: biochemical; conditions: Table 1; ELISA, 500 μM ATP; read-out: TrkA Enzyme IC50
# Outline: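 His-tagged human TrkA cytoplasmic domain phosphorylated poly(Glu,Ala,Tyr 6:3:1) coated at 0.025 mg/mL, with inhibitors present. Phosphotyrosine was detected with HRP-conjugated PY20 antibody (0.2 μg/mL) and TMB, read as absorbance at 450 nm after phosphoric acid stop.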
# Human Jak2 kinase domain = Human Jak2 kinase domain (Homo sapiens (Human), UniProt O60674); assay: Jak2 Inhibition Assay (Omnia kinase assay); format: biochemical; conditions: read-out: Jak2 Enzyme IC50
# [2] = Table 1, 500 μM ATP, >1000 nM when >50% inhibition not observed at 1000 nM
# Human Jak2 kinase domain, sequence (O60674 808-1132): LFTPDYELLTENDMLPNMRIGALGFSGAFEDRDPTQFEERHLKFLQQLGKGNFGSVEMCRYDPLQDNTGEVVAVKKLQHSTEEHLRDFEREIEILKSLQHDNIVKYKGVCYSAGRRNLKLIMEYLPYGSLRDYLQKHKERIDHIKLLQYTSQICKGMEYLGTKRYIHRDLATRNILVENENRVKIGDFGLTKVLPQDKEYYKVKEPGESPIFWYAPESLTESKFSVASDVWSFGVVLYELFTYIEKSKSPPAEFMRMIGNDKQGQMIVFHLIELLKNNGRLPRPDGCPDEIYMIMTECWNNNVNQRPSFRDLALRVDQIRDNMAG
# TrkA (histidine-tagged recombinant human TrkA, cytoplasmic domain), sequence (P04629 440-796): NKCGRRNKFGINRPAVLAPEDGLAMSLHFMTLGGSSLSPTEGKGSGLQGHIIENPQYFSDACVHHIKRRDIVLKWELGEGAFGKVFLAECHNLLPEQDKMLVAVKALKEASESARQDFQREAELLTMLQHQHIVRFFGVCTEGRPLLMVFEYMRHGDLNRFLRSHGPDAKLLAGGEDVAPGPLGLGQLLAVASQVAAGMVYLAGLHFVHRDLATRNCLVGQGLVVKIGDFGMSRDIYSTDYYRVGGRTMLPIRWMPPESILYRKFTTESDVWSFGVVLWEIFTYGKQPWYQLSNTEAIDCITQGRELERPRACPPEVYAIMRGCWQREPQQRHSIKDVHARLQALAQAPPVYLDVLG
SMILES,IC50 [1] [nM],IC50 (Human Jak2 kinase domain; [2]) [nM],IC50 (Human Jak2 kinase domain) [nM]
"O=C(N[C@@H]1C2CC[C@@H](C2)[C@@H]1CO)c1cnn2ccc(N3CCC[C@@H]3c3cncc(F)c3)nc12 [Example 138, 5-((R)-2-(5-fluoropyridin-3-yl)pyrrolidin-1-yl)-N-((2R,3S,4S)-3-(hydroxymethyl)bicyclo[2.2.1]heptan-2-yl)pyrazolo[1,5-a]pyrimidine-3-carboxamide]",34.8,> 1000,–
"COc1ncc(F)cc1[C@H]1CCCN1c1ccn2ncc(C(N)=O)c2n1 [Example 82, (R)-5-(2-(5-fluoro-2-methoxypyridin-3-yl)pyrrolidin-1-yl)pyrazolo[1,5-a]pyrimidine-3-carboxamide]",2.55,–,> 1000
"CONC(=O)c1cnn2ccc(N3CCC[C@@H]3c3cc(F)cnc3OC)nc12 [Example 83, (R)-5-(2-(5-fluoro-2-methoxypyridin-3-yl)pyrrolidin-1-yl)-N-methoxypyrazolo[1,5-a]pyrimidine-3-carboxamide]",1.77,–,> 1000
"NC(=O)c1cnn2ccc(N3CCC[C@@H]3c3cc(F)ccc3C(F)(F)F)nc12 [Example 64, (R)-5-(2-(5-fluoro-2-(trifluoromethyl)phenyl)pyrrolidin-1-yl)pyrazolo[1,5-a]pyrimidine-3-carboxamide]",1.6,575,–
"CNC(=O)c1cnn2ccc(N3C[C@H](O)C[C@@H]3c3cccc(F)c3)nc12 [Example 43, 5-((2R,4R)-2-(3-fluorophenyl)-4-hydroxypyrrolidin-1-yl)-N-methylpyrazolo[1,5-a]pyrimidine-3-carboxamide]",139,> 1000,–
"COc1ncc(F)cc1[C@H]1CCCN1c1ccn2ncc(C(=O)NC(C)(C)CF)c2n1 [Example 81, (R)-5-(2-(5-fluoro-2-methoxypyridin-3-yl)pyrrolidin-1-yl)-N-(1-fluoro-2-methylpropan-2-yl)pyrazolo[1,5-a]pyrimidine-3-carboxamide]",1.15,–,666
"O=C(NC1CC1)c1cnn2ccc(N3CCC[C@@H]3c3cc(F)ccc3F)nc12 [Example 13, (R)—N-cyclopropyl-5-(2-(2,5-difluorophenyl)pyrrolidin-1-yl)pyrazolo[1,5-a]pyrimidine-3-carboxamide]",0.5,> 1000,–
"CC(C)(C)NC(=O)c1cnn2ccc(N3CCC[C@@H]3c3cncc(F)c3)nc12 [Example 53, (R)—N-tert-butyl-5-(2-(5-fluoropyridin-3-yl)pyrrolidin-1-yl)pyrazolo[1,5-a]pyrimidine-3-carboxamide]",10.4,> 1000,–
"Cc1ncc(F)cc1[C@H]1CCCN1c1ccn2ncc(C(=O)N[C@H]3CN4CCC3CC4)c2n1 [Example 198, 5-((R)-2-(5-fluoro-2-methylpyridin-3-yl)pyrrolidin-1-yl)-N-((R)-quinuclidin-3-yl)pyrazolo[1,5-a]pyrimidine-3-carboxamide]",243,> 1000,–
"O=C(NOCC1CC1)c1cnn2ccc(N3CCC[C@@H]3c3cc(F)ccc3F)nc12 [Example 66, (R)—N-(cyclopropylmethoxy)-5-(2-(2,5-difluorophenyl)pyrrolidin-1-yl)pyrazolo[1,5-a]pyrimidine-3-carboxamide]",0.57,> 1000,–
"O=C(NCCN1CCNC1=O)c1cnn2ccc(N3CCC[C@@H]3c3cc(F)ccc3F)nc12 [Example 24, (R)-5-(2-(2,5-difluorophenyl)pyrrolidin-1-yl)-N-(2-(2-oxoimidazolidin-1-yl)ethyl) pyrazole[1,5-a]pyrimidine-3-carboxamide]",3.6,> 1000,–
"COc1ccc(F)cc1[C@H]1CCCN1c1ccn2ncc(C(=O)NC3CC3)c2n1 [Example 48, (R)—N-cyclopropyl-5-(2-(5-fluoro-2-methoxyphenyl)pyrrolidin-1-yl)pyrazolo[1,5-a]pyrimidine-3-carboxamide]",0.6,–,429
"O=C(NC1CCC1)c1cnn2ccc(N3CCC[C@@H]3c3cc(F)ccc3F)nc12 [Example 14, (R)—N-cyclobutyl-5-(2-(2,5-difluorophenyl)pyrrolidin-1-yl)pyrazolo[1,5-a]pyrimidine-3-carboxamide]",0.55,470,–
"O=C(NCCn1ccnc1)c1cnn2ccc(N3CCC[C@@H]3c3cc(F)ccc3F)nc12 [Example 28, (R)—N-(2-(1H-imidazol-1-yl)ethyl)-5-(2-(2,5-difluorophenyl)pyrrolidin-1-yl)pyrazolo[1,5-a]pyrimidine-3-carboxamide]",2.8,> 1000,–

# Next, values leading:
IC50 [1] [nM],IC50 (Human Jak2 kinase domain; [2]) [nM],IC50 (Human Jak2 kinase domain) [nM],SMILES
1190,> 1000,–,"O=C(c1cnn2ccc(N3CCC[C@@H]3c3cncc(F)c3)nc12)N1CC(O)C1 [Example 108, (R)-(5-(2-(5-fluoropyridin-3-yl)pyrrolidin-1-yl)pyrazolo[1,5-a]pyrimidin-3-yl)(3-hydroxyazetidin-1-yl)methanone]"
52.4,> 1000,–,"O=C(NOCCO)c1cnn2ccc(N3CCC[C@@H]3c3cc(F)cnc3Cl)nc12 [Example 225, (R)-5-(2-(2-chloro-5-fluoropyridin-3-yl)pyrrolidin-1-yl)-N-(2-hydroxyethoxy)pyrazolo[1,5-a]pyrimidine-3-carboxamide]"
2.8,> 1000,–,"COc1ncc(F)cc1[C@H]1CCCN1c1ccn2ncc(C(=O)NC[C@@H](C)O)c2n1 [Example 157, 5-((R)-2-(5-fluoro-2-methoxypyridin-3-yl)pyrrolidin-1-yl)-N-((R)-2-hydroxypropyl)pyrazolo[1,5-a]pyrimidine-3-carboxamide]"
8,> 1000,–,"C[C@@H](NC(=O)c1cnn2ccc(N3CCC[C@@H]3c3cncc(F)c3)nc12)C(F)(F)F [Example 129, 5-((R)-2-(5-fluoropyridin-3-yl)pyrrolidin-1-yl)-N-((R)-1,1,1-trifluoropropan-2-yl)pyrazolo[1,5-a]pyrimidine-3-carboxamide]"
1.1,> 1000,–,"COc1ncc(F)cc1[C@H]1CCCN1c1ccn2ncc(C(=O)NCCCO)c2n1 [Example 148, (R)-5-(2-(5-fluoro-2-methoxypyridin-3-yl)pyrrolidin-1-yl)-N-(3-hydroxypropyl)pyrazolo[1,5-a]pyrimidine-3-carboxamide]"
12.3,> 1000,–,"CC(C)(C)[C@@H](CO)NC(=O)c1cnn2ccc(N3CCC[C@@H]3c3cc(F)ccc3F)nc12 [Example 180, 5-((R)-2-(2,5-difluorophenyl)pyrrolidin-1-yl)-N-((S)-1-hydroxy-3,3-dimethylbutan-2-yl)pyrazolo[1,5-a]pyrimidine-3-carboxamide]"
9.38,> 1000,–,"O=C(NC1CC1)c1cnn2ccc(N3CCC[C@@H]3c3cc(F)cc(OCCN4CCOCC4)c3)nc12 [Example 85, (R)—N-cyclopropyl-5-(2-(3-fluoro-5-(2-morpholinoethoxy)phenyl)pyrrolidin-1-yl)pyrazolo[1,5-a]pyrimidine-3-carboxamide]"
49.3,> 1000,–,"Nc1ncc(F)cc1[C@H]1CCCN1c1ccn2ncc(C(=O)N3CCC3)c2n1 [Example 221, (R)-(5-(2-(2-amino-5-fluoropyridin-3-yl)pyrrolidin-1-yl)pyrazolo[1,5-a]pyrimidin-3-yl)(azetidin-1-yl)methanone]"
26.3,> 1000,–,"O=C(N[C@@H]1CCCC[C@H]1O)c1cnn2ccc(N3CCC[C@@H]3c3cncc(F)c3)nc12 [Example 136, 5-((R)-2-(5-fluoropyridin-3-yl)pyrrolidin-1-yl)-N-((1R,2R)-2-hydroxycyclohexyl)pyrazolo[1,5-a]pyrimidine-3-carboxamide]"
568,> 1000,–,"O=C(c1cnn2ccc(N3CCC[C@@H]3c3cncc(F)c3)nc12)N1CCCC1 [Example 94, (R)-(5-(2-(5-fluoropyridin-3-yl)pyrrolidin-1-yl)pyrazolo[1,5-a]pyrimidin-3-yl)(pyrrolidin-1-yl)methanone]"
87.8,> 1000,–,"O=C(N[C@H]1CCC[C@@H]1O)c1cnn2ccc(N3CCC[C@@H]3c3cncc(F)c3)nc12 [Example 103, 5-((R)-2-(5-fluoropyridin-3-yl)pyrrolidin-1-yl)-N-((1S,2S)-2-hydroxycyclopentyl)pyrazolo[1,5-a]pyrimidine-3-carboxamide]"
7.4,> 1000,–,"O=C(NCC(F)F)c1cnn2ccc(N3CCC[C@@H]3c3cncc(F)c3)nc12 [Example 134, (R)-N-(2,2-difluoroethyl)-5-(2-(5-fluoropyridin-3-yl)pyrrolidin-1-yl)pyrazolo[1,5-a]pyrimidine-3-carboxamide]"
9.9,> 1000,–,"COc1ncc(F)cc1[C@H]1CCCN1c1ccn2ncc(C(=O)NCC(C)(C)O)c2n1 [Example 158, (R)-5-(2-(5-fluoro-2-methoxypyridin-3-yl)pyrrolidin-1-yl)-N-(2-hydroxy-2-methylpropyl)pyrazolo[1,5-a]pyrimidine-3-carboxamide]"
26.2,> 1000,–,"C[C@@H](CO)NC(=O)c1cnn2ccc(N3CCC[C@@H]3c3cncc(F)c3)nc12 [Example 116, 5-((R)-2-(5-fluoropyridin-3-yl)pyrrolidin-1-yl)-N-((S)-1-hydroxypropan-2-yl)pyrazolo[1,5-a]pyrimidine-3-carboxamide]"
1.3,524,–,"COc1ncc(F)cc1[C@H]1CCCN1c1ccn2ncc(C(=O)N[C@H]3CC[C@H](O)C3)c2n1 [Example 154, 5-((R)-2-(5-fluoro-2-methoxypyridin-3-yl)pyrrolidin-1-yl)-N-((1S,3S)-3-hydroxycyclopentyl)pyrazolo[1,5-a]pyrimidine-3-carboxamide]"
22.8,> 1000,–,"O=C(NC1CCC[C@@H]1O)c1cnn2ccc(N3CCCC3c3cncc(F)c3)nc12 (stereo partly drawn) [Example 120, 5-((R)-2-(5-fluoropyridin-3-yl)pyrrolidin-1-yl)-N-((trans)-2-hydroxycyclopentyl)pyrazolo[1,5-a]pyrimidine-3-carboxamide]"
